Where two headings read alike, the source gives them in different places.
Assays:
Format in all cases: cell-based
Murine leukemia L1210 = assay: Cell proliferation (Coulter count) assay, L1210; conditions: Mus musculus, 48 h, read-out: absolute IC50, L1210
Procedure, shortened: (§1)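 Cells grown in DMEM with 10% FBS. HeLa seeded at 10 000 cells/well, compound added after 24 h, counted day 5; L1210 and CEM seeded at 60 000 cells/well with compound, counted after 48 h and 72 h respectively. IC50 is concentration halving proliferation by Coulter count.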

human T-lymphocyte CEM = assay: Cell proliferation (Coulter count) assay, CEM; conditions: 72 h, read-out: absolute IC50, CEM
Procedure, shortened: as §1

[1] = test system: human cervix carcinoma HeLa cells; assay: Cell proliferation (Coulter count) assay, HeLa; conditions: 120 h, cell count on day 5, read-out: absolute IC50, HeLa
Procedure, shortened: as §1

CCRFCEM = assay: CellTiterGlo viability assay, CCRFCEM; conditions: for IC50: read-out: IC50 CCRFCEM
Procedure, shortened: (§2)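 Viability is read by CellTiterGlo after three days of treatment. Each compound is tested at nine concentrations spaced 3.16-fold, spanning 198 μM to 19.9 nM final, in duplicate wells with DMSO held at 0.5%.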

MiaPaCa-2 = assay: CellTiterGlo viability assay, MiaPaCa-2; conditions: for IC50: read-out: IC50 MiaPaCa-2
Experimental: (§3) In vitro viability assay were performed to assess the effects of compounds on cell viability in selected cell lines over ˜72 hrs using the CellTiterGlo (CTG, Promega-G7573) assay. The tests were performed in duplicates with treatment of compounds at 9 points, 3.16 folds titration in 96 well plates over ˜72 hrs. The compound starting concentrations were 198 μM. Cell viability assay using CellTiterGlo in 96-well plate were performed. Compound treatment 72 hrs, standard growth conditions, duplicates. Compounds were dissolved to 40 mM with thawed […]. Compounds were serially diluted at 3.16 fold in thawed DMSO, and warmed to 37° C. before being dissolved in media (2 μl+200 μl). After compounds were dissolved in media, media containing compounds were warmed to 37° C. in incubator and then compounds in media were added to cell plates (50 μl+50 μl) in duplicates. The compounds' final concentrations were from […] to 19.9 nM. All compound solubilities were checked and recorded again, then the plates were transferred to CO2 tissue culture incubator immediately and incubated for 3 days. DMSO final concentration is 0.5%.

SW620 = assay: CellTiterGlo viability assay, SW620; conditions: Homo sapiens, read-out: IC50 SW620
Experimental: as §3

HepG2 = assay: CellTiterGlo viability assay, HepG2; conditions: for IC50: read-out: IC50 HepG2
Experimental: as §3

HT29 = assay: CellTiterGlo viability assay, HT29; conditions: for IC50: read-out: IC50 HT29
Experimental: as §3

BxPC-3 = assay: CellTiterGlo viability assay, BxPC-3; conditions: Homo sapiens, read-out: IC50 BxPC-3
Experimental: as §3

MV4-11 = assay: CellTiterGlo viability assay, MV4-11; conditions: Homo sapiens, read-out: IC50 MV4-11
Procedure, shortened: as §2

RL = assay: CellTiterGlo viability assay, RL; conditions: for IC50: read-out: IC50 RL
Procedure, shortened: as §2

MOLT-4 = assay: CellTiterGlo viability assay, MOLT-4; conditions: for IC50: read-out: IC50 MOLT-4
Experimental: as §3

`Nc1ncnc2c1nc(Cl)n2[C@@H]1O[C@H](COP(=O)(NCC(=O)OCc2ccccc2)Oc2ccccc2)[C@@H](O)[C@H]1O` (mixture of isomers) [Compound B, Benzyl 2-(((((2R,3S,4R,5R)-5-(6-amino-8-chloro-9H-purin-9-yl)-3,4-dihydroxytetra-hydrofuran-2-yl)methoxy)(phenoxy)phosphoryl)amino)acetate] showed an IC50 (Murine leukemia L1210) of 5 to 15 µM, an IC50 (human T-lymphocyte CEM) of 5 to 15 µM and an IC50 [1] of 0.1 to 5 µM. For the same compound, the IC50 (CCRFCEM; Homo sapiens, CCRF-CEM, 72 h) was 0.1 to 5 µM, the IC50 (MiaPaCa-2; Homo sapiens, MIA PaCa-2, 72 h) was 0.1 to 5 µM and the IC50 (SW620; SW-620, 72 h) was 0.1 to 5 µM. For the same compound, the IC50 (HepG2; Homo sapiens, HepG2, 72 h) was 0.1 to 5 µM, the IC50 (HT29; Homo sapiens, HT-29, 72 h) was 0.1 to 5 µM and the IC50 (BxPC-3; BXPC-3, 72 h) was 5 to 15 µM. It also gave an IC50 (MV4-11; MV4-11, 72 h) of 0.1 to 5 µM, an IC50 (RL; Homo sapiens, RL, 72 h) of 5 to 15 µM and an IC50 (MOLT-4; Homo sapiens, MOLT-4, 72 h) of 0.1 to 5 µM.
In the case of `Nc1ncnc2c1nc(Cl)n2[C@@H]1O[C@H](CO)[C@@H](O)[C@H]1O` [8-chloroadenosine, 8-Chloroadenosine, reference compound], the IC50 (Murine leukemia L1210) is reported as 0.1 to 5 µM, the IC50 (human T-lymphocyte CEM) is reported as 0.1 to 5 µM and the IC50 [1] is reported as 0.1 to 5 µM. The “Top in. % CCRF-CEM” value (CCRFCEM) was 82.3%, the IC50 (CCRFCEM; Homo sapiens, CCRF-CEM, CellTiterGlo, 72 hrs) was 0.1 to 5 µM and the EC50 (CCRFCEM; Homo sapiens, CCRF-CEM, read-out: Ab EC50 (μM) CCRF-CEM) was 2.27 µM. The “Top in. % MiaPa-Ca-2” value (MiaPaCa-2) was 86.2%, the IC50 (MiaPaCa-2; Homo sapiens, MIA PaCa-2, CellTiterGlo, 72 hrs) was 0.1 to 5 µM and the EC50 (MiaPaCa-2; Homo sapiens, MIA PaCa-2, read-out: Ab EC50 (μM) MiaPa-Ca-2) was 0.44 µM. The IC50 (SW620; SW-620, CellTiterGlo, 72 hrs) was 0.1 to 5 µM, the “Top in. % HepG2” value (HepG2) was 78.5% and the IC50 (HepG2; Homo sapiens, HepG2, CellTiterGlo, 72 hrs) was 0.1 to 5 µM. The EC50 (HepG2; Homo sapiens, HepG2, read-out: Ab EC50 (μM) HepG2) was 1.13 µM, the “Top in. % HT29” value (HT29) was 80.2% and the IC50 (HT29; Homo sapiens, HT-29, CellTiterGlo, 72 hrs) was 0.1 to 5 µM. It also gave an EC50 (HT29; Homo sapiens, HT-29, read-out: Ab EC50 (μM) HT29) of 1.35 µM, an IC50 (BxPC-3; BXPC-3, CellTiterGlo, 72 hrs) of 5 to 15 µM and an IC50 (MV4-11; MV4-11, CellTiterGlo, 72 hrs) of 0.1 to 5 µM. For the same compound, the “Top in. % RL” value (RL) was 87.3%, the IC50 (RL; Homo sapiens, RL, CellTiterGlo, 72 hrs) was 5 to 15 µM and the EC50 (RL; Homo sapiens, RL, read-out: Ab EC50 (μM) RL) was 4.39 µM. For the same compound, the “Top in. % MOLT-4” value (MOLT-4) was 76.0%, the IC50 (MOLT-4; Homo sapiens, MOLT-4, CellTiterGlo, 72 hrs) was 0.1 to 5 µM and the EC50 (MOLT-4; Homo sapiens, MOLT-4, read-out: Ab EC50 (μM) MOLT-4) was 3.27 µM.
With `C[C@H](NP(=O)(OC[C@H]1O[C@@H](n2c(Cl)nc3c(N)ncnc32)[C@H](O)[C@@H]1O)Oc1ccccc1)C(=O)OCc1ccccc1` (mixture of isomers) [C, (2S)-Benzyl 2-(((((2R,3S,4R,5R)-5-(6-amino-8-chloro-9H-purin-9-yl)-3,4-dihydroxy-tetrahydrofuran-2-yl)methoxy)(phenoxy)phosphoryl)amino)propanoate] the IC50 (Murine leukemia L1210) was 15 to 100 µM, the IC50 (human T-lymphocyte CEM) was 15 to 100 µM and the IC50 [1] was 5 to 15 µM. For the same compound, the IC50 (CCRFCEM; Homo sapiens, CCRF-CEM, 72 h) was 5 to 15 µM, the IC50 (MiaPaCa-2; Homo sapiens, MIA PaCa-2, 72 h) was 5 to 15 µM and the IC50 (SW620; SW-620, 72 h) was 15 to 100 µM. The IC50 (HepG2; Homo sapiens, HepG2, 72 h) was 15 to 100 µM, the IC50 (HT29; Homo sapiens, HT-29, 72 h) was 5 to 15 µM and the IC50 (BxPC-3; BXPC-3, 72 h) was 15 to 100 µM. It also gave an IC50 (MV4-11; MV4-11, 72 h) of 0.1 to 5 µM, an IC50 (RL; Homo sapiens, RL, 72 h) of 15 to 100 µM and an IC50 (MOLT-4; Homo sapiens, MOLT-4, 72 h) of 0.1 to 5 µM.
Work on `Nc1ncnc2c1nc(Cl)n2[C@@H]1O[C@H](COP(=O)(NCC(=O)OC2CCCCC2)Oc2ccccc2)[C@@H](O)[C@H]1O` (mixture of isomers) [Compound A, Cyclohexyl 2-(((((2R,3S,4R,5R)-5-(6-amino-8-chloro-9H-purin-9-yl)-3,4-dihydroxy-tetrahydrofuran-2-yl)methoxy)(phenoxy)phosphoryl)amino)acetate] yielded an IC50 (Murine leukemia L1210) of 15 to 100 µM, an IC50 (human T-lymphocyte CEM) of 15 to 100 µM and an IC50 [1] of 15 to 100 µM. The IC50 (CCRFCEM; Homo sapiens, CCRF-CEM, 72 h) was 5 to 15 µM, the IC50 (MiaPaCa-2; Homo sapiens, MIA PaCa-2, 72 h) was 5 to 15 µM and the IC50 (SW620; SW-620, 72 h) was 15 to 100 µM. For the same compound, the IC50 (HepG2; Homo sapiens, HepG2, 72 h) was 5 to 15 µM, the IC50 (HT29; Homo sapiens, HT-29, 72 h) was 15 to 100 µM and the IC50 (BxPC-3; BXPC-3, 72 h) was 15 to 100 µM. The IC50 (MV4-11; MV4-11, 72 h) was 0.1 to 5 µM, the IC50 (RL; Homo sapiens, RL, 72 h) was 5 to 15 µM and the IC50 (MOLT-4; Homo sapiens, MOLT-4, 72 h) was 15 to 100 µM.

— US20190375778A1, “ADENOSINE DERIVATIVES FOR USE IN THE TREATMENT OF CANCER” (NuCana plc, priority 2016, published 2019)
